Molecules are shown by their SMILES.

Assay in all cases: Radiolabeled ATP kinase assay, panel of 371 kinases (Table S6)
Assay type in all cases: biochemical

Assay [1] deals with T1, panel of 371 human kinases (Homo sapiens, UniProt P53350).
T1 construct: purchased Reaction Biology Corp
The settings on record: PLK1; 0.1 μM; 10 μM ATP; read-out: % Enzyme Activity (relative to DMSO controls). An excerpt: (§1) ; FIG. 38C). […]. Further targeted analyses, such as genetic knock-down or knock-out, may be warranted to parse the role of these additional kinases in our model of neurodegeneration.

For assay [2], the target named is T2, panel of 371 human kinases (Homo sapiens, UniProt O75385).
T2 construct: purchased Reaction Biology Corp
T2 sequence (O75385 whole entry): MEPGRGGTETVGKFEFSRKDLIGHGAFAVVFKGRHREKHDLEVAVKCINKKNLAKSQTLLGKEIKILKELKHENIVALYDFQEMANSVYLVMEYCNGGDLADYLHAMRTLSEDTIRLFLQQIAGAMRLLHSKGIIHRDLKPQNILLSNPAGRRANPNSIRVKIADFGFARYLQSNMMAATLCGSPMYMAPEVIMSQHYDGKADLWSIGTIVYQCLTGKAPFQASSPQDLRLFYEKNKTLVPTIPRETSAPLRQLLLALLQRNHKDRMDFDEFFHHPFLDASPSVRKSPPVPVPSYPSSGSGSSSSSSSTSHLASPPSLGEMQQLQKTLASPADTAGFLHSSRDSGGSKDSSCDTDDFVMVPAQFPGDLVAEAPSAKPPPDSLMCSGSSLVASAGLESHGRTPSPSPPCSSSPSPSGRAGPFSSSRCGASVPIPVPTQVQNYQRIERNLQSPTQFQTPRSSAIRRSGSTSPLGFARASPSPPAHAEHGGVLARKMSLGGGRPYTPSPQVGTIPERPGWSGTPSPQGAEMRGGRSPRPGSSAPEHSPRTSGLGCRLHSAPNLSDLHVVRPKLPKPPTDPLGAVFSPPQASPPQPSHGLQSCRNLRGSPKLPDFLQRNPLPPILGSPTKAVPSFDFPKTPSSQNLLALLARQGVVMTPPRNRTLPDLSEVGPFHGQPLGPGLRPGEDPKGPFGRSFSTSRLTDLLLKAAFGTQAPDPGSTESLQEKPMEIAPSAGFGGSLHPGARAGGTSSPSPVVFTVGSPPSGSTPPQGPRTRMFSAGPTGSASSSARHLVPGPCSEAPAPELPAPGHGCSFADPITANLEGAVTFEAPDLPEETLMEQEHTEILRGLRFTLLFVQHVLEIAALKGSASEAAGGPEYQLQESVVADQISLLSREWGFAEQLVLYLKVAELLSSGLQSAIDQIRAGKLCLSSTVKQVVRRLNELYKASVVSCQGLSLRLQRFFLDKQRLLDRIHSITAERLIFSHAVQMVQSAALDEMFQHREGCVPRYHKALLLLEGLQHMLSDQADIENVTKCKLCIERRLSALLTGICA
The settings on record: ULK1; 0.1 μM; 10 μM ATP; read-out: % Enzyme Activity (relative to DMSO controls).
Description: as §1

Assay [3] addresses T3, panel of 371 human kinases (Homo sapiens, UniProt P54760).
T3 construct: purchased Reaction Biology Corp
The settings on record: EPHB4; 0.1 μM; 10 μM ATP; read-out: % Enzyme Activity (relative to DMSO controls).
Description: as §1

The target of assay [4] is T4, panel of 371 human kinases (Homo sapiens, UniProt P51817).
T4 construct: purchased Reaction Biology Corp
T4 sequence (P51817 whole entry): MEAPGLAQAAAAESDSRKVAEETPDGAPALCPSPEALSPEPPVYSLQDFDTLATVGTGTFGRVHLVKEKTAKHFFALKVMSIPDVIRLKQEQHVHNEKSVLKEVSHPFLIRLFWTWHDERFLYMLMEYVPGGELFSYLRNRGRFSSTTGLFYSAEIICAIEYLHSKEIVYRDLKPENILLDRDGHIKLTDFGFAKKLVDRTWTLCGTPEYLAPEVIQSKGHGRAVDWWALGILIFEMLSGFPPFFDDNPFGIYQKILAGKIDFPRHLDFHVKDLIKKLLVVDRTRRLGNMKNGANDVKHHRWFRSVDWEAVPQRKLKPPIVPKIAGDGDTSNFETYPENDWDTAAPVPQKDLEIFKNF
The settings on record: PRKX; 0.1 μM; 10 μM ATP; read-out: % Enzyme Activity (relative to DMSO controls).
Description: as §1

Assay [5] deals with T5, panel of 371 human kinases (Homo sapiens, UniProt P12931).
T5 construct: purchased Reaction Biology Corp
The conditions noted are these: c-Src; 0.1 μM; 10 μM ATP; read-out: % Enzyme Activity (relative to DMSO controls).
Description: as §1

For assay [6], the target named is T6, panel of 371 human kinases (Homo sapiens, UniProt P09619).
T6 construct: purchased Reaction Biology Corp
The settings on record: PDGFRb; 0.1 μM; 10 μM ATP; read-out: % Enzyme Activity (relative to DMSO controls).
Description: as §1

Assay [7] addresses T7, panel of 371 human kinases (Homo sapiens, UniProt P36888).
T7 construct: purchased Reaction Biology Corp
The settings on record: FLT3; 0.1 μM; 10 μM ATP; read-out: % Enzyme Activity (relative to DMSO controls).
Description: as §1

Assay [8] concerns the target T8, panel of 371 human kinases (Homo sapiens, UniProt Q8TD19).
T8 construct: purchased Reaction Biology Corp
The settings on record: NEK9; 0.1 μM; 10 μM ATP; read-out: % Enzyme Activity (relative to DMSO controls).
Description: as §1

Assay [9] concerns the target T9, panel of 371 human kinases (Homo sapiens, UniProt P54753).
T9 construct: purchased Reaction Biology Corp
The conditions noted are these: EPHB3; 0.1 μM; 10 μM ATP; read-out: % Enzyme Activity (relative to DMSO controls).
Description: as §1

For assay [10], the target named is T10, panel of 371 human kinases (Homo sapiens, UniProt Q96SB4).
T10 construct: purchased Reaction Biology Corp
The settings on record: SRPK1; 0.1 μM; 10 μM ATP; read-out: % Enzyme Activity (relative to DMSO controls).
Description: as §1

The target in assay [11] is T11, panel of 371 human kinases (Homo sapiens, UniProt Q15746).
T11 construct: purchased Reaction Biology Corp
The conditions noted are these: MLCK/MYLK; 0.1 μM; 10 μM ATP; read-out: % Enzyme Activity (relative to DMSO controls).
Description: as §1

Assay [12] has as its target T12, panel of 371 human kinases (Homo sapiens, UniProt Q15569).
T12 construct: purchased Reaction Biology Corp
The conditions noted are these: TESK1; 0.1 μM; 10 μM ATP; read-out: % Enzyme Activity (relative to DMSO controls).
Description: as §1

Assay [13] deals with T13, panel of 371 human kinases (Homo sapiens, UniProt Q00536).
T13 construct: purchased Reaction Biology Corp
The conditions noted are these: CDK16/cyclin Y (PCTAIRE); 0.1 μM; 10 μM ATP; read-out: % Enzyme Activity (relative to DMSO controls).
Description: as §1

Assay [14] has as its target T14, panel of 371 human kinases (Homo sapiens, UniProt P07332).
T14 construct: purchased Reaction Biology Corp
The settings on record: FES/FPS; 0.1 μM; 10 μM ATP; read-out: % Enzyme Activity (relative to DMSO controls).
Description: as §1

In assay [15] the target is T15, panel of 371 human kinases (Homo sapiens, UniProt P15735).
T15 construct: purchased Reaction Biology Corp
The conditions noted are these: PHKg2; 0.1 μM; 10 μM ATP; read-out: % Enzyme Activity (relative to DMSO controls).
Description: as §1

Assay [16] has as its target T16, panel of 371 human kinases (Homo sapiens, UniProt Q92630).
T16 construct: purchased Reaction Biology Corp
The settings on record: DYRK2; 0.1 μM; 10 μM ATP; read-out: % Enzyme Activity (relative to DMSO controls).
Description: as §1

The target of assay [17] is T17, panel of 371 human kinases (Homo sapiens, UniProt P22612).
T17 construct: purchased Reaction Biology Corp
The settings on record: PKAcg; 0.1 μM; 10 μM ATP; read-out: % Enzyme Activity (relative to DMSO controls).
Description: as §1

The target of assay [18] is T18, panel of 371 human kinases (Homo sapiens, UniProt P30291).
T18 construct: purchased Reaction Biology Corp
The conditions noted are these: WEE1; 0.1 μM; 10 μM ATP; read-out: % Enzyme Activity (relative to DMSO controls).
Description: as §1

Assay [19] addresses T19, panel of 371 human kinases (Homo sapiens, UniProt P51812).
T19 construct: purchased Reaction Biology Corp
The conditions noted are these: RSK2; 0.1 μM; 10 μM ATP; read-out: % Enzyme Activity (relative to DMSO controls).
Description: as §1

Assay [20] concerns the target T20, panel of 371 human kinases (Homo sapiens, UniProt O15530).
T20 construct: purchased Reaction Biology Corp
The conditions noted are these: PDK1/PDPK1; 0.1 μM; 10 μM ATP; read-out: % Enzyme Activity (relative to DMSO controls).
Description: as §1

In assay [21] the target is T21, panel of 371 human kinases (Homo sapiens, UniProt O00238).
T21 construct: purchased Reaction Biology Corp
The settings on record: ALK6/BMPR1B; 0.1 μM; 10 μM ATP; read-out: % Enzyme Activity (relative to DMSO controls).
Description: as §1

Assay [22] concerns the target T22, panel of 371 human kinases (Homo sapiens, UniProt Q9H2G2).
T22 construct: purchased Reaction Biology Corp
The settings on record: SLK/STK2; 0.1 μM; 10 μM ATP; read-out: % Enzyme Activity (relative to DMSO controls).
Description: as §1

Assay [23] has as its target T23, panel of 371 human kinases (Homo sapiens, UniProt P16591).
T23 construct: purchased Reaction Biology Corp
The settings on record: FER; 0.1 μM; 10 μM ATP; read-out: % Enzyme Activity (relative to DMSO controls).
Description: as §1

Assay [24] has as its target T24, panel of 371 human kinases (Homo sapiens, UniProt Q9UQM7).
T24 construct: purchased Reaction Biology Corp
The settings on record: CAMK2a; 0.1 μM; 10 μM ATP; read-out: % Enzyme Activity (relative to DMSO controls).
Description: as §1

T8 sequence (Q8TD19 whole entry): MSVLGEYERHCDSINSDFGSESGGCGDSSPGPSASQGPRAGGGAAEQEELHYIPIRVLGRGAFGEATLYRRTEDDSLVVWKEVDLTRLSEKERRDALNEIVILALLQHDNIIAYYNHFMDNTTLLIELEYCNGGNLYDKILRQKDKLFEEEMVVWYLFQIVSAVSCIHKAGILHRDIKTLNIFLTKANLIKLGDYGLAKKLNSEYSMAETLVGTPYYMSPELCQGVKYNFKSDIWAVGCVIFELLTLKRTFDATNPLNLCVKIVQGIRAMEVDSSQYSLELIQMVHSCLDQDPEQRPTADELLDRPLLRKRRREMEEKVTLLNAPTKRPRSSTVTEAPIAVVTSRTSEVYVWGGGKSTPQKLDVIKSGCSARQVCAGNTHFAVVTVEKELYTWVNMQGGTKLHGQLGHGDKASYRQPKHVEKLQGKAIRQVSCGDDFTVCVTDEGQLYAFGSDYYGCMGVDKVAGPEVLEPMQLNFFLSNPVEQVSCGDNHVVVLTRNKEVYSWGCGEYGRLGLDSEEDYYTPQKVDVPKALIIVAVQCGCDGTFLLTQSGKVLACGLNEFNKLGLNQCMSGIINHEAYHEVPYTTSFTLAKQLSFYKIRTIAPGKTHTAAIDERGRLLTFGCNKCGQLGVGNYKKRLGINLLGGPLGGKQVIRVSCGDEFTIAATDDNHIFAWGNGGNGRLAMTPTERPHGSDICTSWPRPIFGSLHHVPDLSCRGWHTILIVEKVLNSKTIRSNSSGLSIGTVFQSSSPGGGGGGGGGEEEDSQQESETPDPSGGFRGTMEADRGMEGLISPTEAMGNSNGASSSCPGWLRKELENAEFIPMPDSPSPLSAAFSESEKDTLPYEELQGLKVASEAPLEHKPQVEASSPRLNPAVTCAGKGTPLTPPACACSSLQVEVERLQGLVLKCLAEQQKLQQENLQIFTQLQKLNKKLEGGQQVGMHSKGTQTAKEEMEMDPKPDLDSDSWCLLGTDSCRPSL
T9 sequence (P54753 34-998): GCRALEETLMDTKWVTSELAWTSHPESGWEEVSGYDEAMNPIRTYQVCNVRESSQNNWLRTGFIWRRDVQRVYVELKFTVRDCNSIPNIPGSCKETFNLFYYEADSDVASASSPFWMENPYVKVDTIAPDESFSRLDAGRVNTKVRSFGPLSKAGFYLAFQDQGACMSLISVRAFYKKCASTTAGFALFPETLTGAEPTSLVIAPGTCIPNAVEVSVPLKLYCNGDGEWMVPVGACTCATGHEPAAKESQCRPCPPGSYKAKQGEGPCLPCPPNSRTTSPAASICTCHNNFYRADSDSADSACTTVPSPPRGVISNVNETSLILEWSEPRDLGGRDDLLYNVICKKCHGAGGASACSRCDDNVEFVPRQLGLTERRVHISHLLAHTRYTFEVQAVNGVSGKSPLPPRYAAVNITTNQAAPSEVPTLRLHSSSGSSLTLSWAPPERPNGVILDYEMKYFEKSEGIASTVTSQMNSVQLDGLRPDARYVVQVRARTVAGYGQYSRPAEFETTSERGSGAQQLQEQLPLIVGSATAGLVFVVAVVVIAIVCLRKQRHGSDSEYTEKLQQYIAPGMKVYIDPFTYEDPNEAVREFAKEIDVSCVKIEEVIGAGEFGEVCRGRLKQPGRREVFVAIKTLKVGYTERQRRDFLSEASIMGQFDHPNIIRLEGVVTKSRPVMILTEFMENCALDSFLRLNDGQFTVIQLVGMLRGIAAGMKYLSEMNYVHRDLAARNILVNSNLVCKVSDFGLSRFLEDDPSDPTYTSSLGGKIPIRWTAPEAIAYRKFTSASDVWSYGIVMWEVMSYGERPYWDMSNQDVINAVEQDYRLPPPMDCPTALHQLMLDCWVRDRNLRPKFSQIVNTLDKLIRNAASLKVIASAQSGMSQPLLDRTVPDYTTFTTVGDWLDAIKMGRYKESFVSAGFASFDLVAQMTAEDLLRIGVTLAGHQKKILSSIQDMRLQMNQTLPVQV
T20 sequence (O15530 whole entry): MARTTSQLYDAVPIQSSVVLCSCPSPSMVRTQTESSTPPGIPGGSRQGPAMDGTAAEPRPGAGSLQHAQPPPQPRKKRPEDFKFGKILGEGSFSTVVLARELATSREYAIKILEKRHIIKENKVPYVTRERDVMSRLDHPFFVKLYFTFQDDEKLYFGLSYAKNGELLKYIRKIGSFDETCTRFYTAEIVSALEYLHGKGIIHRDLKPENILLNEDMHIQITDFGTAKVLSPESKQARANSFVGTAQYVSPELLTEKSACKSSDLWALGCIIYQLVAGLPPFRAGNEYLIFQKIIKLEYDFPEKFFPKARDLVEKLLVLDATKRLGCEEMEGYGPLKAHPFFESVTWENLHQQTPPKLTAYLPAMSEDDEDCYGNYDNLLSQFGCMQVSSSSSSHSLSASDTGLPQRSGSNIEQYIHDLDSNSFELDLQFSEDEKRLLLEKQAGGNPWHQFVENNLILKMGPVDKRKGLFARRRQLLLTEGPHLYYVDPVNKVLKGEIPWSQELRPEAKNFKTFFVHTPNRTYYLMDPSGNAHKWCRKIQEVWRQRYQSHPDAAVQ
T24 sequence (Q9UQM7 whole entry): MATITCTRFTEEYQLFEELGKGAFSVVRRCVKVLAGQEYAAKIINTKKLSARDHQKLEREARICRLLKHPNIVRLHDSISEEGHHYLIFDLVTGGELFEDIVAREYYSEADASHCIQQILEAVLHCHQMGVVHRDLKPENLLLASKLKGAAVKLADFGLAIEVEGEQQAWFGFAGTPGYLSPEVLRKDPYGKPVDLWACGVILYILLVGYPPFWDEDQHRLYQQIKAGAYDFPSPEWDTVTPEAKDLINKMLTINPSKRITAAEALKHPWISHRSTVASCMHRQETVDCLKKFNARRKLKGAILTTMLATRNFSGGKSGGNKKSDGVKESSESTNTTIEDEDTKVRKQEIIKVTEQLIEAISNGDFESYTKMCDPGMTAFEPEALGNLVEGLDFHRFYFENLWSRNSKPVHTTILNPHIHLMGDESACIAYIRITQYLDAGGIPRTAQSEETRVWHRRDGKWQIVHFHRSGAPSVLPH
T16 sequence (Q92630 whole entry): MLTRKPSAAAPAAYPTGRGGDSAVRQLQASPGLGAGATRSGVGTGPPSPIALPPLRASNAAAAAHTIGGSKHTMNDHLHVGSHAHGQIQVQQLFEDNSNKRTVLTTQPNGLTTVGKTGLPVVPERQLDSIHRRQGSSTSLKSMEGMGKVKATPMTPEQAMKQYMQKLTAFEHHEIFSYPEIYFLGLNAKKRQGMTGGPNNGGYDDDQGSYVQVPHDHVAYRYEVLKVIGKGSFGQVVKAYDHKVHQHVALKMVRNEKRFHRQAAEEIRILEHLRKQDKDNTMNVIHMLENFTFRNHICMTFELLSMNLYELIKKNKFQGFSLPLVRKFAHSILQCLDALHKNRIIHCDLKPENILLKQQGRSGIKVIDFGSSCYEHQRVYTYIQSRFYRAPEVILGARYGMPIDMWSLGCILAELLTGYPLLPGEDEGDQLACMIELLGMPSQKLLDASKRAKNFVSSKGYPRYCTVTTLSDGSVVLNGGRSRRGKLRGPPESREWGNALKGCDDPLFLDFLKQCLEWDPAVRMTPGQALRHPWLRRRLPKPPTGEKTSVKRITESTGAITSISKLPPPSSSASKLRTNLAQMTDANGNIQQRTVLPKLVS

On to `CN1CCN(Cc2ccc(-c3cnc4[nH]cc(-c5ccc6[nH]ccc6c5)c4c3)cc2)CC1` [Compound 1, 3-(1H-Indol-5-yl)-5-(4-((4-methylpiperazin-1-yl)methyl)phenyl)-1H-pyrrolo[2,3-b]pyridine, reference compound], for which the remaining activity at 0.1 µM in [1] is 98.6%; in [2], 89.7%; in [3] it was 91.6%; in [4], 95.5%; in assay [5], 86%; in assay [6], 94.2%. The remaining activity at 0.1 µM in [7] worked out at 22.3%; in assay [8] it was 101%; in assay [9], 107%; in assay [10] it was 104%; in assay [11], 93.4%; in [12] it was 105%. The remaining activity at 0.1 µM in assay [13] amounted to 130%; in assay [14], 68.2%; in [15], 86%; in assay [16] it was 71.7%; in assay [17], 102%; in [18], 114%. Besides, the remaining activity at 0.1 µM in [19] was found to be 105%; in assay [20], 110%; in [21] it was 116%; in assay [22] it was 93.2%; in assay [23] it was 94.8%; in [24], 101%.
As to `OCCN1CCN(Cc2ccc(-c3cnc4[nH]cc(-c5cccc(Cl)c5)c4c3)cc2)CC1` [Compound 12k, 2-(4-(4-(3-(3-Chlorophenyl)-1H-pyrrolo[2,3-b]pyridin-5-yl)benzyl)piperazin-1-yl)ethan-1-ol], the remaining activity at 0.1 µM in assay [1] came out at 100%; in assay [2], 88.8%; in assay [3], 97.5%; in [4], 96.1%; in assay [5], 88.1%; in assay [6], 96.3%. The remaining activity at 0.1 µM in assay [7] was 29.4%; in assay [8] it was 95.1%; in [9], 101%; in assay [10], 100%; in assay [11], 99.1%; in assay [12] it was 101%. Also, the remaining activity at 0.1 µM was 97.3% in assay [13]; 77.9% in assay [14]; 95.2% in [15]; 85.6% in assay [16]; 99.4% in assay [17]; 86.6% in [18]. Also, the remaining activity at 0.1 µM in assay [19] stood at 77.3%; in [20] it was 92.7%; in [21], 125%; in assay [22], 83.5%; in assay [23] it was 103%; in assay [24] it was 110%.

Values taken from US12227500B2, “Substituted pyrrolo[2,3-b]pyridines for suppressing toxic endoplasmic reticulum stress” (THE TRUSTEES OF COLUMBIA UNIVERSITY IN THE CITY OF NEW YORK, priority 2018, dated 2025).
